Series [1] can be described thus: Solubility of the compound in amorphous form in phosphate buffer at pH 6.5. It is filed as physicochemical.
Series [2] in a line: Permeability of the compound at pH 7.4 by PAMPA. It is filed as physicochemical. The following applies: read-out: permeability.
Series [3] has as its target T1, Nuclear receptor subfamily 1 group I member 2 (Homo sapiens, UniProt O75469).
T1 sequence (O75469 whole entry): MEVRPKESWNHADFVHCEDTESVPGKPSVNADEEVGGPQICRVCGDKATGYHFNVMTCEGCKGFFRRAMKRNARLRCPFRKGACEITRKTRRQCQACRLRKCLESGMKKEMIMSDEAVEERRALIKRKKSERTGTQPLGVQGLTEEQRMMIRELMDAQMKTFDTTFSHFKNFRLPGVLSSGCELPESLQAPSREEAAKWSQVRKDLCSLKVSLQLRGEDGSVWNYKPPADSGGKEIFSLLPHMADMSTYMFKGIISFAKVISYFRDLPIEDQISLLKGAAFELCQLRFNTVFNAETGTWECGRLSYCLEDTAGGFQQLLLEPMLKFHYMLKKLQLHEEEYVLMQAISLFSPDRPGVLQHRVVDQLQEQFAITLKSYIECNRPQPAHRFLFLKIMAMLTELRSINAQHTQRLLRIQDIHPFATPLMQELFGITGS
The series is described as follows: Transactivation of human PXR expressed in human HepG2 cells by luciferase reporter gene assay. It is filed as cell-based.

Series [4] in a line: Cytotoxicity against human HuH7 cells by Alamar blue assay. It is filed as cell-based. The following applies: Huh-7 cells.
Series [5] has as its system Hepatitis C virus. The experiment in a line: Antiviral activity against Hepatitis C virus Con1 genotype 1b infected in human HuH7 cells after 3 days by FRET assay in presence of 40% human serum. It is filed as functional, organism-based, Hepacivirus hominis. The following applies: isolate Con1, Huh-7, 72 h.
For series [6], the system named is Hepatitis C virus. The experiment in a line: Antiviral activity against Hepatitis C virus H77c genotype 1a infected in human HuH7 cells after 3 days by FRET assay. Format: functional, organism-based, Hepacivirus hominis. The following applies: genotype 1a H77, Huh-7, 72 h.
Series [7] deals with Hepatitis C virus. The series is described as follows: Antiviral activity against Hepatitis C virus Con1 genotype 1b infected in human HuH7 cells after 3 days by FRET assay. It is filed as functional, organism-based, Hepacivirus hominis. The following applies: isolate Con1, Huh-7, 72 h.
The test system of series [8] is Liver microsome. The settings on record: human, microsomes.
Series [9] deals with Liver microsome. The settings on record: rat, microsomes.
For series [10], the target named is T2, PXR (NR1I2) (Homo sapiens, UniProt O75469).
T2 sequence (O75469 whole entry): T1 sequence (O75469 whole entry)
The experiment in a line: Transactivation of human PXR expressed in human HepG2 cells by luciferase reporter gene assay relative to control. Format: cell-based. The following applies: HepG2 cells expressing human PXR, read-out: %max.

In brackets after ≈: the same amount, converted by molar mass. A value given as a limit tells only on which side of the number the result lay.

The values that follow come from ChEMBL document CHEMBL3124792, “Discovery and preclinical characterization of the cyclopropylindolobenzazepine BMS-791325, a potent allosteric inhibitor of the hepatitis C virus NS5B polymerase” (J Med Chem, 2014).

Regarding `COc1ccc2c(c1)C1CC1(C(=O)N1CCN(C(C)=O)CC1)Cn1c-2c(C2CCCCC2)c2ccc(C(=O)NS(=O)(=O)N(C)C)cc21` (racemic), the concentration in solution in series [1] (solubility) was 18 µg/mL (≈ 27.2 µM). Moreover, the Papp in series [2] was determined as 34 ×10⁻⁶ cm/s. The EC50 in [3] is greater than 50000 nM; in [5], 89 nM; in series [6] it was 45 nM; in series [7], 98 nM. In series [4], this compound yielded a half-maximal cytotoxic concentration (CC50) greater than 10000 nM. Besides, the Stability in series [8] was determined as 93%; in [9] it was 100%.
Compound `COc1ccc2c(c1)C1CC1(C(=O)N1CCN(C(=O)N(C)C)CC1)Cn1c-2c(C2CCCCC2)c2ccc(C(=O)NS(=O)(=O)N(C)C)cc21` (racemic) returned a solubility in series [1] of 18 µg/mL (≈ 26.1 µM). For the same compound, in [2], the Papp is 43 ×10⁻⁶ cm/s. Moreover, the EC50 in series [3] is greater than 50000 nM; in series [5], 59 nM; in series [6], 23 nM; in series [7], 54 nM. Further, the CC50 in series [4] was greater than 10000 nM. Moreover, the Stability in [8] came out at 64%; in series [9], 93%.
Take `COc1ccc2c(c1)C1CC1(C(=O)N1C3CC1CN(C)C3)Cn1c-2c(C2CCCCC2)c2ccc(C(=O)NS(=O)(=O)N(C)C)cc21` (racemic): the EC50 in series [3] was greater than 50000 nM; in series [5], 39 nM; in [6] it was 4 nM; in series [7] it was 12 nM. In addition, in series [4], the CC50 came out at 10000 nM. For the same compound, the Stability in series [8] and in series [9] was 100% throughout.
As to `COc1ccc2c(c1)C1CC1(C(=O)N1C3CCC1CNC3)Cn1c-2c(C2CCCCC2)c2ccc(C(=O)NS(=O)(=O)N(C)C)cc21` (racemic), the Papp in [2] was found to be 4 ×10⁻⁶ cm/s. Besides, in [10], the Emax stood at 31%. The 50% effective concentration (EC50) in series [3] was determined as 9000 nM; in series [6], 14 nM; in [7] it was 32 nM. The same compound gave a cytotoxic concentration (CC50) in series [4] greater than 10000 nM. In addition, the Stability was 96% in series [8] and 100% in series [9].
Regarding `COc1ccc2c(c1)C1CC1(C(=O)N1CC3CCC(C1)N3)Cn1c-2c(C2CCCCC2)c2ccc(C(=O)NS(=O)(=O)N(C)C)cc21` (racemic), in series [2], the Papp turned out to be 0.2 ×10⁻⁶ cm/s. For the same compound, the half-maximal effective concentration (EC50) is greater than 50000 nM in series [3], 34 nM in series [6] and 89 nM in series [7]. This compound registered a CC50 in series [4] greater than 10000 nM. In addition, the Stability in [8] and in series [9] was 100% in each case.
`COc1ccc2c(c1)C1CC1(C(=O)N1C3CCC1CN(C)C3)Cn1c-2c(C2CCCCC2)c2ccc(C(=O)NS(=O)(=O)N(C)C)cc21` (racemic): the solubility in series [1] was 44 µg/mL (≈ 66.7 µM). Moreover, the Papp in series [2] amounted to 77 ×10⁻⁶ cm/s. Also, the Emax in [10] was found to be 21%. This compound also registered a CC50 in series [4] greater than 10000 nM. The figures for the EC50 in [5], in [6] and in [7] were 45 nM, 5 nM and 13 nM, respectively. The Stability in [8] worked out at 90%; in [9], 100%.
Take `CCN1CC2CCC(C1)N2C(=O)C12CC1c1cc(OC)ccc1-c1c(C3CCCCC3)c3ccc(C(=O)NS(=O)(=O)N(C)C)cc3n1C2` (racemic): in [2], the Papp came to 41 ×10⁻⁶ cm/s. The concentration for a half-maximal effect (EC50) was greater than 50000 nM in series [3], 37 nM in series [5], 4 nM in series [6] and 22 nM in series [7]. In series [4], this compound registered a CC50 greater than 10000 nM. Moreover, the Stability in series [8] and in series [9] was 98% each time.
In turn, `COc1ccc2c(c1)C1CC1(C(=O)N1C[C@@H](C)O[C@@H](C)C1)Cn1c-2c(C2CCCCC2)c2ccc(C(=O)NS(=O)(=O)N(C)C)cc21` (mixture of isomers) gave an EC20 in series [3] (human, hepg2) of 2800 nM. Moreover, the CC50 in series [4] stood at 9000 nM. Besides, the EC50 is 98 nM in series [5], 12 nM in [6] and 24 nM in [7].
On to `COc1ccc2c(c1)C1CC1(C(=O)N1CC3CCC(C1)O3)Cn1c-2c(C2CCCCC2)c2ccc(C(=O)NS(=O)(=O)N(C)C)cc21` (racemic), for which, in [10], the Emax amounted to 144%. The EC50 in [3] is 600 nM; in [5], 114 nM; in series [6], 7 nM; in [7] it was 31 nM. The compound also yielded a half-maximal cytotoxic concentration (CC50) in series [4] greater than 10000 nM.
For `COc1ccc2c(c1)C1CC1(C(=O)N1CC(O)(C(F)(F)F)C1)Cn1c-2c(C2CCCCC2)c2ccc(C(=O)NS(=O)(=O)N(C)C)cc21` (racemic), in series [2], the Papp was 47 ×10⁻⁶ cm/s. Also, the Emax in series [10] turned out to be 32%. The EC50 in series [3] was greater than 3000 nM; in [5] it was 115 nM; in series [6] it was 15 nM; in [7], 50 nM. Further, the CC50 in [4] was greater than 10000 nM. Further, the Stability in series [8] and in [9] was 100% in each case.
For the compound `COc1ccc2c(c1)C1CC1(C(=O)N1CC(O)(C(C)C)C1)Cn1c-2c(C2CCCCC2)c2ccc(C(=O)NS(=O)(=O)N(C)C)cc21` (racemic), the Papp in series [2] was determined as 74 ×10⁻⁶ cm/s. The Emax in series [10] came to 14%. Moreover, the EC50 was greater than 50000 nM in series [3], 65 nM in series [5], less than 14 nM in series [6] and 23 nM in [7]. The same compound showed a CC50 in series [4] of 6500 nM. In addition, the Stability in [8] came out at 72%; in series [9] it was 100%.
On to `COc1ccc2c(c1)C1CC1(C(=O)N1CC(O)(C3CC3)C1)Cn1c-2c(C2CCCCC2)c2ccc(C(=O)NS(=O)(=O)N(C)C)cc21` (racemic), for which the Papp in [2] was 19 ×10⁻⁶ cm/s. The Emax in [10] was 12%. The EC50 in [3] is greater than 50000 nM; in series [5], 68 nM; in series [6], less than 14 nM; in series [7], 29 nM. Moreover, the CC50 in series [4] was greater than 10000 nM. In addition, the Stability in [8] and in series [9] was 100% throughout.
Regarding `COc1ccc2c(c1)C1CC1(C(=O)N1CC(O)(c3ccccc3)C1)Cn1c-2c(C2CCCCC2)c2ccc(C(=O)NS(=O)(=O)N(C)C)cc21` (racemic), the Papp in series [2] came out at 39 ×10⁻⁶ cm/s. In [10], the Emax stood at 10%. Also, the figures for the EC50 in [3], in series [6] and in [7] were greater than 50000 nM, 68 nM and 160 nM, respectively. Further, in [4], the CC50 amounted to 8000 nM. The Stability turned out to be 72% in series [8] and 100% in series [9].
With `COc1ccc2c(c1)C1CC1(C(=O)N1CC(O)(c3ccc(F)cc3)C1)Cn1c-2c(C2CCCCC2)c2ccc(C(=O)NS(=O)(=O)N(C)C)cc21` (racemic), the Emax in series [10] was found to be 3%. In addition, the EC50 in [3] is greater than 50000 nM; in [6], 54 nM; in series [7], 220 nM. This compound also gave a 50% cytotoxic concentration (CC50) in [4] of 7000 nM. Also, the results for the Stability in [8] and in series [9] were 87% and 100%, respectively.
In [1], `COc1ccc2c(c1)C1CC1(C(=O)N1C[C@@H](C)N[C@@H](C)C1)Cn1c-2c(C2CCCCC2)c2ccc(C(=O)NS(=O)(=O)N(C)C)cc21` (mixture of isomers) displayed a solubility of less than 1 µg/mL. Also, in [2], the Papp worked out at 14 ×10⁻⁶ cm/s. Moreover, the EC50 was greater than 50000 nM in [3], 55 nM in [5], 21 nM in [6] and 29 nM in [7]. Besides, it took 15000 nM to reach half-maximal cytotoxicity in series [4] (CC50). In addition, the Stability in series [8] came to 91%; in series [9], 100%.

Usually solubility stands for the dissolved amount per volume that the medium holds. A high value points to much dissolved substance. The EC50 is the concentration needed to bring the measured effect to its halfway point. A word on the CC50: it is the concentration that lowers cell viability or growth by half. A low value points to harm at low concentration. The term EC20 denotes the point of the concentration-response curve where the effect stands at 20%. Low readings indicate an effect from little substance, high ones a need for much substance.
